Consider one compound from BindingDB's records for doi:10.1016/j.bmc.2007.07.029 (Polish Academy of Sciences, 2007).

Assay in all cases: Radioligand Binding Assay (Ki)
Assay [1] concerns the target 5-hydroxytryptamine receptor 7 (Homo sapiens, UniProt P34969). The settings on record: pH 7.4; 37 °C. As to the method:
(§1) Competition experiments were performed in the presence radioligand with membrane protein and test compounds. After incubation, the reaction stopped by rapid filtration onto a 96-well GF/B filter. Radioactivity retained on the filters was measured by liquid scintillation counting (Beckman LS 6500 apparatus). IC50 values for test compounds were determined from nonlinear regression analysis of data collected from ligand binding experiments. The inhibition constant (Ki) was calculated from IC50 value by the Cheng and Prusoff equation.

Assay [2] has as its target T1, Alpha-1B adrenergic receptor (Rattus norvegicus, UniProt P15823).
T1 sequence (P15823 whole entry): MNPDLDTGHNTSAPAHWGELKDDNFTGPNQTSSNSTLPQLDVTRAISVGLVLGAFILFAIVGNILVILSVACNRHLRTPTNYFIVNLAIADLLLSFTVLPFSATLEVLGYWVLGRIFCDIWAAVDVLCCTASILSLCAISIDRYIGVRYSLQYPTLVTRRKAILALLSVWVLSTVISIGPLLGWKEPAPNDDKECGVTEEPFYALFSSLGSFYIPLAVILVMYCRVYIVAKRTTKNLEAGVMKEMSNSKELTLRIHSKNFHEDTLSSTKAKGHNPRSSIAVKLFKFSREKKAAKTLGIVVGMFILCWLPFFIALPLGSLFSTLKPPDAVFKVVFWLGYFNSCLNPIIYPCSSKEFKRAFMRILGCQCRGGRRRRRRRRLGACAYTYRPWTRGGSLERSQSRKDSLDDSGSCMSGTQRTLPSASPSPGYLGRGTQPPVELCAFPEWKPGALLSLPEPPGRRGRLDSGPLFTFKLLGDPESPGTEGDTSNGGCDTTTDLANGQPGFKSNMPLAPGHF
On the procedure:
as §1

The target in assay [3] is D(2) dopamine receptor (Rattus norvegicus, UniProt P61169). On the procedure:
as §1

Assay [4] concerns the target T2, 5-hydroxytryptamine receptor 1A (Rattus norvegicus, UniProt P19327).
T2 sequence (P19327 whole entry): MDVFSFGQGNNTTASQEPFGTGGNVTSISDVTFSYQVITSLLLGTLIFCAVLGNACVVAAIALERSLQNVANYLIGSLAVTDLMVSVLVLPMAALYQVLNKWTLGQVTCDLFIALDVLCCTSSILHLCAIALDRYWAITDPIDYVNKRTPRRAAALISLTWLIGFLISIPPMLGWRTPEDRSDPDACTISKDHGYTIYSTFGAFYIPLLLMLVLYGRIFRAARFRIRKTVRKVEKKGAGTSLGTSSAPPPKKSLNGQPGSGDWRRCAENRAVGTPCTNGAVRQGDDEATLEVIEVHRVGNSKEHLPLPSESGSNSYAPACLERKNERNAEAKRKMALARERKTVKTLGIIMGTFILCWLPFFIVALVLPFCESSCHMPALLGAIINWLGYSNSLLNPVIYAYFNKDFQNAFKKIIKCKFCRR
The settings on record: pH 7.4; 37 °C. On the procedure:
as §1

5-hydroxytryptamine receptor 7, sequence (P34969 whole entry): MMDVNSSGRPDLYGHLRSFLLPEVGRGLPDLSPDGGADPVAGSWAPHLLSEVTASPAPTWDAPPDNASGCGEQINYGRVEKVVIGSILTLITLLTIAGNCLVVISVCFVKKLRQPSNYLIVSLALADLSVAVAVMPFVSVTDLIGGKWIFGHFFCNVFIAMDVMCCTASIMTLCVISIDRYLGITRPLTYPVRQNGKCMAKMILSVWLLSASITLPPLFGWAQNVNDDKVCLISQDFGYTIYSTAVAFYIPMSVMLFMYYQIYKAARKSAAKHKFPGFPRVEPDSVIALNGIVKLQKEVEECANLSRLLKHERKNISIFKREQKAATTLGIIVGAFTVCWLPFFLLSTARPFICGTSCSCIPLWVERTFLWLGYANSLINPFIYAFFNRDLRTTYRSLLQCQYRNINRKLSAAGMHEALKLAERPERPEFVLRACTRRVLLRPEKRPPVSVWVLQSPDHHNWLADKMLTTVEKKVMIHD
D(2) dopamine receptor, sequence (P61169 whole entry): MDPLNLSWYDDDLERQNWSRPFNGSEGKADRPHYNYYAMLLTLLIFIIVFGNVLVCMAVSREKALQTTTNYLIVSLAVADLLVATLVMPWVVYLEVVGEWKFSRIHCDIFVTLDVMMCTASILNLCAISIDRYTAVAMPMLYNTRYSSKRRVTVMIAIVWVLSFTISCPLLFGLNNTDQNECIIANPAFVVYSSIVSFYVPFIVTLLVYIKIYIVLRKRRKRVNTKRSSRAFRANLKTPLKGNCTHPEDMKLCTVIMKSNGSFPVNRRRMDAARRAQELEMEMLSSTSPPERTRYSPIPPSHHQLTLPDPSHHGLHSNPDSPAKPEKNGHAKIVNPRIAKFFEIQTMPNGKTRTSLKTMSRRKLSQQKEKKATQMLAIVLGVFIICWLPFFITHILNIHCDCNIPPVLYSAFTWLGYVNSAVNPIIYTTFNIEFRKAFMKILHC

`O=C1CCC(=O)N1C1CCC(N2CCN(c3cccc(C(F)(F)F)c3)CC2)CC1` (centres undefined) [1-(m-trifluorophenyl)piperazine, 4]: the Ki in assay [1] is 1820 nM; in assay [2], 505 nM; in assay [3], more than 25000 nM; in assay [4] it was 4 nM.
